These results are taken from patent US10752624B2, “Kinase inhibitors” (Origenis GmbH, priority 2012, dated 2020).

The target in this test is LRRK2 (Homo sapiens, UniProt Q5S007). The experiment in a line: LRRK2-LRRK2 G2019S-Assay (LanthaScreen Eu Kinase Binding Assay). The conditions noted are these: 5 nM LRRK2, 10 nM tracer 236, 2 nM EU-Anti-GST antibody, 1 h at RT; read-out: LRRK2 Activities: IC50. Here is the method: In the assay LanthaScreen™ Eu Kinase Binding Assay by Invitrogen Corporation (Carlsbad) the effect of invention of a compound on the phosphorylation is determined by measurement of fluorescence intensity emission ratio based on the binding and displacement of a proprietary, Alexa Fluor® 647-labeled, ATP-competitive kinase inhibitor scaffold (kinase tracer) to the kinase of interest. Binding of the tracer to the kinase is detected using a europium-labeled anti-tag antibody, which binds to the kinase of interest. Simultaneous binding of both the tracer and antibody to the kinase results in a high degree of FRET (fluorescence resonance energy transfer) from the europium (Eu) donor fluorophore to the Alexa Fluor® 647 acceptor fluorophore on the kinase tracer. Binding of an inhibitor to the kinase competes for binding with the tracer, resulting in a loss of FRET. The fluorescence intensity ratio is directly proportional to the amount of peptide phosphorylation.
Sequence of LRRK2 (Q5S007 970-2527 limits assumed): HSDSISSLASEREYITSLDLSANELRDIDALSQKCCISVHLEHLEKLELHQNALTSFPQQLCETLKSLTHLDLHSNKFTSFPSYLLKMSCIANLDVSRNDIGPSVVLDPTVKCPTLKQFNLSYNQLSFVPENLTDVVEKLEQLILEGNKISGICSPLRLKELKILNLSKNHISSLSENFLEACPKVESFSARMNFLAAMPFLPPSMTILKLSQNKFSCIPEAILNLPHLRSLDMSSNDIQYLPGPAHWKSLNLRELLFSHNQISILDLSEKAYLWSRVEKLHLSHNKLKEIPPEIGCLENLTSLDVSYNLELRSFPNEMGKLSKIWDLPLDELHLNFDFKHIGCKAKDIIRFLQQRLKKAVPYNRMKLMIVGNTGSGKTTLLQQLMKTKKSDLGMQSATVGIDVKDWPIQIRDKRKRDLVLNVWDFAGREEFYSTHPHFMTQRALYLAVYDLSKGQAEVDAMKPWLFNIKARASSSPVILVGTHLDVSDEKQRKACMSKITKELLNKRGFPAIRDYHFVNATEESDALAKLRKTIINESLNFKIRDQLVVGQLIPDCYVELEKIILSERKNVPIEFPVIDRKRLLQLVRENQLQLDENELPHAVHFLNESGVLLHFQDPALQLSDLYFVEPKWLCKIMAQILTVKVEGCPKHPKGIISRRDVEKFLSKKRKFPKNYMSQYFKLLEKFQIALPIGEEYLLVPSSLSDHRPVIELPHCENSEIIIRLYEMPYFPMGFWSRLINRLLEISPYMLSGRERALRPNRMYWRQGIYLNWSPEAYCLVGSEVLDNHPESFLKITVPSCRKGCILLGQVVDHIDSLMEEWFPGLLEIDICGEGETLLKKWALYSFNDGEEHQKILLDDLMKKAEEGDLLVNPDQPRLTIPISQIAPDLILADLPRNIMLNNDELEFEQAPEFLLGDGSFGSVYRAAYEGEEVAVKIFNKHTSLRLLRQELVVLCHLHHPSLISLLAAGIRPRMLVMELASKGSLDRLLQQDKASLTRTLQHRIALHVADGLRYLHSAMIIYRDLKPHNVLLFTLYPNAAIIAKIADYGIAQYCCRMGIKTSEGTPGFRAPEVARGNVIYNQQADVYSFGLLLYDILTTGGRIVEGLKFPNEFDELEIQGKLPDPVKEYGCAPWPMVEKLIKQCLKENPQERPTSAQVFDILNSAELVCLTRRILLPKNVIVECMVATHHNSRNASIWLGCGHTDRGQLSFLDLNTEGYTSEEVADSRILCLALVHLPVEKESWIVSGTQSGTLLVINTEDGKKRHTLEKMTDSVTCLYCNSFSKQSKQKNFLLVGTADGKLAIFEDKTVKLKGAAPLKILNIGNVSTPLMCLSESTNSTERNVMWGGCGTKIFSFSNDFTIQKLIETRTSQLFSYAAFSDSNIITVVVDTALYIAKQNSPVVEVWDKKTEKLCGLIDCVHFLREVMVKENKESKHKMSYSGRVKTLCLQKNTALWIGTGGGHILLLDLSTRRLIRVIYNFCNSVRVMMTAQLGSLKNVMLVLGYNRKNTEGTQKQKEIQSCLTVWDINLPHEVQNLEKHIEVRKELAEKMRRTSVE
To the wells of an 384 well small volume plate (Greiner, Frickenhausen) are added (i) the compound under test in 5% DMSO/distilled water (5 μl), (ii) 5 μl of the kinase antibody mixture resulting in a final concentration 5 nM LRRK2 or their mutants, 2 nM EU-Anti-GST antibody in 1× kinase buffer A. The reaction was started with addition of (iii) 5 μl resulting in a final concentration of 10 nM tracer 236. The assay plate was incubated at RT for 1 h and fluorescence intensity readings were collected using a TECAN M1000 at two wavelengths of λex 340/λem 615 nm and λex 340/λem 665 nm with a delay time of 100 μs and an integration time of 200 μs after 60 minutes. The emission ratio was calculated by division of the acceptor/tracer emission ([…]) by the antibody/donor emission ([…]). The inhibitor concentration was plotted versus the emission ratio to determine the IC50 using XLFit 5.0 (IDBS, Guildford) to fit to a sigmoidal dose response curve with a variable slope.
On the technique in general: In TR-FRET formats the signal depends on donor and acceptor labels being close together.
For orientation: IC50 means the concentration at which inhibition is half-maximal. As for `COc1ccc(Nc2nc3ccc(S(C)(=O)=O)cc3c3cn[nH]c23)cc1OC` [Example 63, N-(3,4-dimethoxyphenyl)-8-(methylsulfonyl)-3H-pyrazolo[3,4-c]quinolin-4-amine], the half-maximal inhibitory concentration (IC50) lay in the range of 10 to 100 nM.

As to `Cc1c(Nc2nc3ccc(S(C)(=O)=O)cc3c3cn[nH]c23)cnn1C(C)C` [Example 214, N-(1-isopropyl-5-methyl-1H-pyrazol-4-yl)-8-(methylsulfonyl)-3H-pyrazolo[3,4-c]quinolin-4-amine], the IC50 is under 10 nM.

As to `COCCn1ncc(Nc2nc3ccc(S(C)(=O)=O)cc3c3cn[nH]c23)c1C` [Example 282, N-(1-(2-methoxyethyl)-5-methyl-1H-pyrazol-4-yl)-8-(methylsulfonyl)-3H-pyrazolo[3,4-c]quinolin-4-amine], the IC50 lay within 100 to 1000 nM.

In the case of `COc1ccc2nc(Nc3ccc(N(C)C)nc3)c3n[nH]cc3c2c1` [Example 87, N5-(8-methoxy-2H-pyrazolo[3,4-c]quinolin-4-yl)-N2,N2-dimethylpyridine-2,5-diamine], the concentration for half-maximal inhibition (IC50) fell in the range of 100 to 1000 nM.

In the case of `COCCn1ncc(Nc2nc3cccc(OC)c3c3cn[nH]c23)c1Cl` [Example 241, N-(5-chloro-1-(2-methoxyethyl)-1H-pyrazol-4-yl)-9-methoxy-3H-pyrazolo[3,4-c]quinolin-4-amine], the IC50 lay within 10 to 100 nM.

Take `COCCn1ncc(Nc2nc3ccc(S(C)(=O)=O)cc3c3cn[nH]c23)c1C` [Example 210, N-(1-(2-methoxyethyl)-5-methyl-1H-pyrazol-4-yl)-8-(methylsulfonyl)-3H-pyrazolo[3,4-c]quinolin-4-amine]: the half-maximal inhibitory concentration (IC50) lay in the range of 10 to 100 nM.

Turning to `CS(=O)(=O)c1cccc2nc(Nc3ccc(NCCO)cc3)c3[nH]ncc3c12` [Example 106, 2-((4-((9-(methylsulfonyl)-3H-pyrazolo[3,4-c]quinolin-4-yl)amino)phenyl)amino)ethan-1-ol], the IC50 was 100 to 1000 nM.

Regarding `CS(=O)(=O)c1ccc2nc(Nc3ccccc3O)c3n[nH]cc3c2c1` [Example 336, 2-((8-(methylsulfonyl)-2H-pyrazolo[3,4-c]quinolin-4-yl)amino)phenol], the IC50 was 100 to 1000 nM.

For the compound `Fc1cccc2nc(Nc3ccc(N4CCOCC4)cc3)c3[nH]ncc3c12` [Example 9, 9-fluoro-N-(4-morpholinophenyl)-3H-pyrazolo[3,4-c]quinolin-4-amine], the IC50 fell in the range of 10 to 100 nM.

On to `Cc1nn(C2CCOCC2)cc1Nc1nc2ccc(S(C)(=O)=O)cc2c2cn[nH]c12` [Example 216, N-(3-methyl-1-(tetrahydro-2H-pyran-4-yl)-1H-pyrazol-4-yl)-8-(methylsulfonyl)-3H-pyrazolo[3,4-c]quinolin-4-amine], for which the IC50 was 10 to 100 nM.

For the compound `COc1cccc2nc(Nc3ccc(N4CCOCC4)c(F)c3)c3[nH]ncc3c12` [Example 27, N-(3-fluoro-4-morpholinophenyl)-9-methoxy-3H-pyrazolo[3,4-c]quinolin-4-amine], the IC50 lay within 10 to 100 nM.

For `COc1ccc2nc(Nc3ccc4c(c3)S(=O)(=O)C=C4)c3n[nH]cc3c2c1` [Example 13, 6-((8-methoxy-2H-pyrazolo[3,4-c]quinolin-4-yl)amino)benzo[b]thiophene 1,1-dioxide], the IC50 was in the range of 100 to 1000 nM.

On to `COc1ccc2nc(Nc3ccc(C(=O)N4CCOCC4)c(F)c3)c3n[nH]cc3c2c1` [Example 34, (2-fluoro-4-((8-methoxy-2H-pyrazolo[3,4-c]quinolin-4-yl)amino)phenyl)(morpholino)methanone], for which the IC50 fell in the range of 10 to 100 nM.

`COCCn1ncc(Nc2nc3ccc(S(C)(=O)=O)cc3c3cn[nH]c23)c1Cl` [Example 242, N-(5-chloro-1-(2-methoxyethyl)-1H-pyrazol-4-yl)-8-(methylsulfonyl)-3H-pyrazolo[3,4-c]quinolin-4-amine]: the IC50 fell in the range of 10 to 100 nM.

Take `Cc1c(Nc2nc3ccc(S(C)(=O)=O)cc3c3cn[nH]c23)cnn1CCF` [Example 270, N-(1-(2-fluoroethyl)-5-methyl-1H-pyrazol-4-yl)-8-(methylsulfonyl)-3H-pyrazolo[3,4-c]quinolin-4-amine]: the 50% inhibitory concentration (IC50) was under 10 nM.

In the case of `COc1ccc2nc(Nc3ccc(F)c(S(C)(=O)=O)c3)c3n[nH]cc3c2c1` [Example 4, N-(4-fluoro-3-(methylsulfonyl)phenyl)-8-methoxy-2H-pyrazolo[3,4-c]quinolin-4-amine], the IC50 lay in the range of 100 to 1000 nM.

Consider `CC(C)n1cc(Nc2nc3ccc(S(C)(=O)=O)cc3c3cn[nH]c23)c(C(N)=O)n1` [Example 250, 1-isopropyl-4-((8-(methylsulfonyl)-3H-pyrazolo[3,4-c]quinolin-4-yl)amino)-1H-pyrazole-3-carboxamide], for which the half-inhibitory concentration (IC50) lay within 100 to 1000 nM.

On to `COCCCn1cc(Nc2nc3c(OC)cccc3c3cn[nH]c23)cn1` [Example 306, 6-methoxy-N-(1-(3-methoxypropyl)-1H-pyrazol-4-yl)-3H-pyrazolo[3,4-c]quinolin-4-amine], for which the IC50 fell in the range of 100 to 1000 nM.

As to `Cn1cccc(Nc2nc3ccc(S(C)(=O)=O)cc3c3cn[nH]c23)c1=O` [Example 202, 1-methyl-3-((8-(methylsulfonyl)-3H-pyrazolo[3,4-c]quinolin-4-yl)amino)pyridin-2(1H)-one], the IC50 lay within 100 to 1000 nM.

With `COc1cc(N2CCOC2=O)ccc1Nc1nc2ccc(S(C)(=O)=O)cc2c2cn[nH]c12` [Example 240, 3-(3-methoxy-4-((8-(methylsulfonyl)-3H-pyrazolo[3,4-c]quinolin-4-yl)amino)phenyl)oxazolidin-2-one], the IC50 was in the range of 100 to 1000 nM.

Turning to `COCCn1ncc(Nc2nc3ccc(S(C)(=O)=O)cc3c3cn[nH]c23)c1Br` [Example 279, N-(5-bromo-1-(2-methoxyethyl)-1H-pyrazol-4-yl)-8-(methylsulfonyl)-3H-pyrazolo[3,4-c]quinolin-4-amine], the IC50 lay in the range of 10 to 100 nM.

For `COCCCn1ncc(Nc2nc3cccc(OC)c3c3cn[nH]c23)c1Cl` [Example 235, N-(5-chloro-1-(3-methoxypropyl)-1H-pyrazol-4-yl)-9-methoxy-3H-pyrazolo[3,4-c]quinolin-4-amine], the IC50 is 10 to 100 nM.

Turning to `COc1ccc2nc(Nc3cnn(C(C)C(=O)O)c3)c3n[nH]cc3c2c1` (stereo not drawn) [Example 347, 2-(4-((8-methoxy-2H-pyrazolo[3,4-c]quinolin-4-yl)amino)-1H-pyrazol-1-yl)propanoic acid], the IC50 was 100 to 1000 nM.

For `CS(=O)(=O)c1ccc2nc(Nc3cnn(C4CCOCC4)c3Cl)c3[nH]ncc3c2c1` [Example 265, N-(5-chloro-1-(tetrahydro-2H-pyran-4-yl)-1H-pyrazol-4-yl)-8-(methylsulfonyl)-3H-pyrazolo[3,4-c]quinolin-4-amine], the IC50 is under 10 nM.

Regarding `CC(=O)N1CCN(c2ccc(Nc3nc4c(F)cccc4c4cn[nH]c34)cc2)CC1` [Example 53, 1-(4-(4-((6-fluoro-3H-pyrazolo[3,4-c]quinolin-4-yl)amino)phenyl)piperazin-1-yl)ethan-1-one], the IC50 was in the range of 100 to 1000 nM.

As for `Cc1cccc2nc(Nc3ccc(N4CCOCC4)cc3)c3[nH]ncc3c12` [Example 89, 9-methyl-N-(4-morpholinophenyl)-3H-pyrazolo[3,4-c]quinolin-4-amine], the IC50 fell in the range of 100 to 1000 nM.

For `COc1cccc2nc(Nc3ccc(-c4ncco4)cc3)c3[nH]ncc3c12` [Example 58, 9-methoxy-N-(4-(oxazol-2-yl)phenyl)-3H-pyrazolo[3,4-c]quinolin-4-amine], the IC50 lay in the range of 100 to 1000 nM.

As for `COc1cccc2nc(Nc3ccc(N4CCOCC4)c(C#N)c3)c3[nH]ncc3c12` [Example 71, 5-((9-methoxy-3H-pyrazolo[3,4-c]quinolin-4-yl)amino)-2-morpholinobenzonitrile], the IC50 was 10 to 100 nM.

As to `COCCn1ncc(Nc2nc3cccc(OC)c3c3cn[nH]c23)c1F` [Example 276, N-(5-fluoro-1-(2-methoxyethyl)-1H-pyrazol-4-yl)-9-methoxy-3H-pyrazolo[3,4-c]quinolin-4-amine], the IC50 was 10 to 100 nM.

Regarding `COc1ccc2nc(Nc3ccc(C(=O)N4CCOCC4)c([N+](=O)[O-])c3)c3n[nH]cc3c2c1` [Example 35, (4-((8-methoxy-2H-pyrazolo[3,4-c]quinolin-4-yl)amino)-2-nitrophenyl)(morpholino)methanone], the IC50 fell in the range of 100 to 1000 nM.

In the case of `COc1cccc2nc(Nc3cc(C4CC4)[nH]n3)c3n[nH]cc3c12` [Example 26, N-(5-cyclopropyl-1H-pyrazol-3-yl)-9-methoxy-3H-pyrazolo[3,4-c]quinolin-4-amine], the 50% inhibitory concentration (IC50) is 10 to 100 nM.

On to `COc1cccc2nc(Nc3ccc4c(c3)S(=O)(=O)C=C4)c3[nH]ncc3c12` [Example 20, 6-((9-methoxy-3H-pyrazolo[3,4-c]quinolin-4-yl)amino)benzo[b]thiophene 1,1-dioxide], for which the IC50 lay within 10 to 100 nM.

On to `COCCn1cc(Nc2nc3cccc(OC)c3c3cn[nH]c23)c(C)n1` [Example 205, 9-methoxy-N-(1-(2-methoxyethyl)-3-methyl-1H-pyrazol-4-yl)-3H-pyrazolo[3,4-c]quinolin-4-amine], for which the IC50 lay in the range of 10 to 100 nM.
